Here are results for two compounds from patent US12514862B2, “Testosterone containing pharmaceutical composition” (Diurnal Limited, priority 2020, dated 2026).

A short description of data set [1]: DITEST-001 study: serum testosterone undecanoate and aqueous/lipid fractions of serum. It counts as in vivo, human. From the text: There is an unmet need for a native oral testosterone therapy for men with androgen (testosterone) deficiency. Current therapy for most hypogonadal patients in Europe and the United States of America (USA) is with either intramuscular injections or gels. These therapies have the disadvantages of pain with injections, skin reactions, and potential spread to partners with gels. At the time this study was designed, there was only one oral formulation of testosterone undecanoate on the market in the UK, but at that time this was not approved in the USA. DITEST is a novel formulation of native testosterone. […] Testosterone undecanoate is considered mainly absorbed through intestinal lymphatics, along with dietary lipids, whilst DITEST was formulated to permit absorption without the requirement for dietary lipids. To examine the proportions absorbed through lymphatics, the aqueous and lipid fractions of serum were separated for the measurement of serum testosterone. Since this was a first-in-human study, participants were closely monitored as inpatients during dosing. […]
(§1) Twelve participants were to be recruited into each cohort (note: participants from Cohort 1 could be entered into Cohort 2 after a washout period of at least 3 months between cohorts). Participants were not recruited into Cohort 2 until the results of participants treated in Cohort 1 had been evaluated (this review determined if the intended dose for Cohort 2 needed to be adjusted). […]
(§2) • Testosterone serum concentrations after administration of a single dose of 120 mg or 200 mg DITEST and 80 mg testosterone undecanoate in the fed state, as measured by the primary PK parameters of maximum serum concentration (Cmax) and the area under the curve from 0 to 10 hours (AUC0-10). Secondary Endpoints • Testosterone serum concentrations after administration of a single 200 mg dose of DITEST in the fed and fasted states, as measured by the primary PK parameters of Cmax and AUC0-10. • AEs observed throughout the study. • Changes during the study in vital signs, ECG and safety laboratory data. […]

Data set [2] can be described thus: DITEST-001 single dose cross-over study: serum total testosterone pharmacokinetics. It counts as in vivo, human. To be noted: DITEST both doses fed and 200 mg fasted; testosterone undecanoate fed; hypogonadal men. How it is done:
(§3) The study was conducted in male participants from 18 to 80 years of age requiring testosterone replacement therapy for primary or secondary hypogonadism. The study was a randomized, active control, single dose, 2-way cross-over study in 2 cohorts. In each cohort participants who met the entry criteria at screening and baseline were randomized to one of 2 sequences:
(§4) Cohort 1: single dose of 120 mg (3×40 mg) DITEST followed by a single dose of 80 mg (2×40 mg) testosterone undecanoate or a single dose of 80 mg (2×40 mg) testosterone undecanoate followed by a single dose of 120 mg (3×40 mg) DITEST. The 2 treatments were separated by a minimum of a 7-day washout period, with both treatments given in the fed state.
(§5) Cohort 2: single dose of 200 mg (5×40 mg) DITEST (fed) followed by a single dose of 200 mg DITEST (fasted) or a single dose of 200 mg DITEST (fasted) followed by a single dose of 200 mg (5×40 mg) DITEST (fed). The 2 treatments were separated by a minimum of a 7-day washout period.
as §1

Data set [3] in a line: DITEST-001 study: safety (TEAEs, SAEs, ECG, vital signs). It counts as in vivo, human. How it is done: as §3, §4, §5
Twelve participants were to be recruited into each cohort (note: participants from Cohort 1 could be entered into Cohort 2 after a washout period of at least 3 months between cohorts). Participants were not recruited into Cohort 2 until the results of participants treated in Cohort 1 had been evaluated (this review determined if the intended dose for Cohort 2 needed to be adjusted). No other testosterone treatments were allowed for the duration of each cohort (including the washout periods) (note: participants who entered Cohort 1 were able to revert to their usual testosterone treatment, if applicable, on completion of this cohort and prior to screening for Cohort 2, if applicable). Each participant was required to attend the study site for a minimum of either 4 or 5 visits per cohort: a screening assessment, an evaluation of baseline testosterone levels after the washout period from the participant's current medication (only for participants currently on testosterone replacement therapy), both dosing days, and a follow-up visit at the end of the study. On each dosing day, participants were to remain in the study site and PK blood and saliva samples were taken at −0.5, −0.25 (Cohort 1 only), 0, 0.5, 1, 1.5, 2, 2.5, 3, 3.5, 4, 4.5, 5, 5.5, 6, 7, 8, and 10 hours. Further PK blood and saliva samples could be taken at up to 2 additional timepoints per period if deemed necessary based on emerging data. […] If necessary, for practical reasons, participants could stay overnight at the study site or at a nearby hotel the night before and/or the night after the dosing days.
as §2, with “data. Exploratory Endpoints: • To assess the levels of testosterone and DHT in serum. • To assess the levels of testosterone and testosterone undecanoate in the lipid and aqueous fractions of blood (testosterone undecanoate only measured in participants in the testosterone undecanoate arm). • To assess the levels of intact testosterone undecanoate in serum for participants who received testosterone undecanoate. • To compare testosterone concentrations in venous and capillary blood samples collected using the Mitra microsampling device with serum concentrations. • To compare the concentrations of testosterone in saliva with serum concentrations. • To evaluate the concentrations of androstenedione in saliva Statistical Methods” for “data.”

The conditions of data set [4]: cited from earlier work.

The structures appear in SMILES notation.

For orientation: Aqueous Solubility means the concentration that dissolves in the medium under given conditions.

On to `CCCCCCCCCCC(=O)O[C@H]1CC[C@H]2[C@@H]3CCC4=CC(=O)CC[C@]4(C)[C@H]3CC[C@]12C` [Testosterone Undecanoate, testosterone undecanoate], for which the “Lipid fraction of serum testosterone undecanoate as part of total serum measurement of testosterone undecanoate” value in data set [1] (after 80 mg testosterone undecanoate) is “over half”. The “Serum testosterone undecanoate levels relative to the testosterone levels” value in data set [1] (after dosing with 80 mg testosterone undecanoate) worked out at 10 fold. For the same compound, the “Lipid fraction of testosterone relative to the serum concentration” value in data set [1] (single oral dose) was “approximately 1/10”. The “Serum testosterone levels following dosing” value in data set [2] is listed as “within the physiological range”. Also, in data set [3] (Cohort 1: testosterone undecanoate 80 mg and DITEST 120 mg), the “QT prolongation, reported as related to study intervention” value was “One participant had QT prolongation”. Also, the “Total number of TEAEs reported” value in data set [3] (DITEST 120 mg fed, 200 mg fed and 200 mg fasted, testosterone undecanoate 80 mg fed) is given as 8. Moreover, in data set [3] (single doses), the “Mean change in diastolic blood pressure” value is 1.5 mmHg, the “Mean change in heart rate” value is listed as 8.5 bpm, the “Mean change in systolic blood pressure” value is given as 12.8 mmHg and the “SAEs or severe AEs” value is “One SAE”.

`C[C@]12CC[C@H]3[C@@H](CCC4=CC(=O)CC[C@@]43C)[C@@H]1CC[C@@H]2O` [Testosterone, (8R,9S,10R,13S,14S,17S)-17-hydroxy-10,13-dimethyl-1,2,6,7,8,9,11,12,14,15,16,17-dodecahydrocyclopent a[a]phenanthren-3-one]: in data set [4] ((wt/vol) at 20° C.), the “Non-aqueous Solubility, Alcohol” value is recorded as 1 in 5 parts; the “Non-aqueous Solubility, Chloroform” value is 1 in 2 parts; the “Non-aqueous Solubility, Dehydrated alcohol” value is on record as 1 in 6 parts; the “Non-aqueous Solubility, Dioxane” value is on record as “soluble”. Moreover, in data set [4] ((wt/vol) at 20° C.), the “Non-aqueous Solubility, Ether” value is recorded as 1 in 100 parts; the “Non-aqueous Solubility, Ethyl oleate” value is reported as “slightly soluble”; the “Non-aqueous Solubility, Vegetable oils” value is given as “soluble”. For the same compound, in data set [4] (at 20° C. in water), the “Aqueous Solubility” value is <1 mg/mL (insoluble) at 20 °C in water.
